Results reported in ChEMBL document CHEMBL1201862, “PubChem BioAssay data set” (2004).
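Test compounds were applied to cells in 96-well plates for 48 hours at 5 doses. Abbreviation: GI50, concentration required for 50% inhibition of growth.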 Active and inactive are the calls of the source. No stated cut-off is given here; in the data, active = GI50 up to about 1.1 µM and inactive = higher.

Assays:
Experiment in all cases: NCI tumour cell line growth inhibition, 48 h
[1] = system: HT-29
[2] = system: UACC-257
[3] = system: OVCAR-5
[4] = system: 786-0
[5] = system: SN12C
[6] = system: ACHN
[7] = system: M14
[8] = system: NCI-H226
[9] = system: SK-OV-3
[10] = system: UACC-62
[11] = system: CCRF-CEM
[12] = system: RPMI-8226
[13] = system: UO-31
[14] = system: U-251
[15] = system: BT-549
[16] = system: MCF7
[17] = system: HOP-62
[18] = system: HCC 2998
[19] = system: HCT-116
[20] = system: SF-268
[21] = system: K562
[22] = system: SW-620
[23] = system: SF-295
[24] = system: NCI-H23
[25] = system: MDA-N
[26] = system: IGROV-1
[27] = system: OVCAR-4
[28] = system: EKVX
[29] = system: MDA-MB-435
[30] = system: PC-3
[31] = system: OVCAR-8
[32] = system: MOLT-4
[33] = system: NCI/ADR-RES
[34] = system: A549
[35] = system: NCI-H460
[36] = system: MDA-MB-231
[37] = system: DU-145
[38] = system: LOX IMVI
[39] = system: TK-10
[40] = system: SNB-75
[41] = system: SNB-19
[42] = system: SK-MEL-28
[43] = system: A498
[44] = system: COLO 205
[45] = system: T47D
[46] = system: HL-60
[47] = system: HCT-15
[48] = system: Malme-3M
[49] = system: SR
[50] = system: SK-MEL-5
[51] = system: HOP-92
[52] = system: OVCAR-3

N=C(N)C1CN(CC=O)C(=O)NC1=O (configuration not stated)
GI50 [1]: > 100 µM (inactive)
GI50 [2]: > 100 µM (inactive)
GI50 [3]: > 100 µM (inactive)
GI50 [4]: > 100 µM (inactive)
GI50 [5]: > 100 µM (inactive)
GI50 [6]: > 100 µM (inactive)
GI50 [7]: > 100 µM (inactive)
GI50 [8]: > 100 µM (inactive)
GI50 [9]: > 100 µM (inactive)
GI50 [10]: > 100 µM (inactive)
GI50 [11]: > 100 µM (inactive)
GI50 [12]: > 100 µM (inactive)
GI50 [13]: > 100 µM (inactive)
GI50 [14]: > 100 µM (inactive)
GI50 [15]: > 100 µM (inactive)
GI50 [16]: > 100 µM (inactive)
GI50 [17]: > 100 µM (inactive)
GI50 [18]: > 100 µM (inactive)
GI50 [19]: > 100 µM (inactive)
GI50 [20]: > 100 µM (inactive)
GI50 [21]: > 100 µM (inactive)
GI50 [22]: > 100 µM (inactive)
GI50 [23]: > 100 µM (inactive)
GI50 [24]: > 100 µM (inactive)
GI50 [25]: > 100 µM (inactive)
GI50 [26]: > 100 µM (inactive)
GI50 [27]: > 100 µM (inactive)
GI50 [28]: > 100 µM (inactive)
GI50 [29]: > 100 µM (inactive)
GI50 [30]: > 100 µM (inactive)
GI50 [31]: > 100 µM (inactive)
GI50 [32]: > 100 µM (inactive)
GI50 [33]: > 100 µM (inactive)
GI50 [34]: > 100 µM (inactive)
GI50 [35]: > 100 µM (inactive)
GI50 [36]: > 100 µM (inactive)
GI50 [37]: > 100 µM (inactive)
GI50 [38]: > 100 µM (inactive)
GI50 [39]: > 100 µM (inactive)
GI50 [40]: > 100 µM (inactive)
GI50 [41]: > 100 µM (inactive)
GI50 [42]: > 100 µM (inactive)
GI50 [43]: > 100 µM (inactive)
GI50 [44]: > 100 µM (inactive)
GI50 [45]: > 100 µM (inactive)
GI50 [46]: > 100 µM (inactive)
GI50 [47]: > 100 µM
GI50 [48]: > 100 µM (inactive)
GI50 [49]: > 100 µM (inactive)
GI50 [50]: > 100 µM (inactive)
GI50 [51]: > 100 µM (inactive)
GI50 [52]: > 100 µM (inactive)
